Measured values published in patent US5716963A, “Anthraquinonic derivatives having an antitumor activity and applications thereof” (Universidad Complutense De Madrid, priority 1994, dated 1998).
Converted amounts (≈) assume the structure as drawn.

How the values were obtained:
[1] = tested on: MEL-28; assay: IC50 growth inhibition, MEL-28 monolayer culture (crystal violet); format: cell-based; settings: Homo sapiens, SK-MEL-28, 72 h, three days, 37° C., 10% CO2, crystal violet 0.1%, approximate IC50, in duplicate
Method: (§1) Cell cultures: The cells were kept in logarithmic phase of growth in Eagle's Minimum Essential Medium, with Earle's Balanced Salts, with L-gluatamine 2.0 mM, with non-essential amino acids and without sodium bicarbonate (EMEM-NEAA); supplemented with Fetal Calf Serum (FCS) 10% sodium bicarbonate 10^-2 and with 0.1 g/l penicillin-G+-streptomycin sulfate.
(§2) To determine and to compare the antitumor activity of these compounds, a simple screening process was carried out using an adapted form of the method described by Bergeron et al. (1984) ((1) Raymond J. Bergeron, Paul F. Cavanaugh, Jr., Steven J. Kline, Robert G. Hughes, Jr., Gary T. Elliot and Carl W. Porter. Antineoplastic and antiherpetic activity of spermidine catecholamide iron chelators. Biochem. Bioph. Res. Comm. 1984, 121 (3), 848-854; (2) Alan C. Schroeder, Robert G. Hughes, Jr. and Alexander Bloch. Effects of Acyclic pyrimidine nucleoside analogues. J. Med. Chem. 1981, 24, 1078-1083). The antitumor cells used have been P-388 (culture in DBA/2 mouse lymphoid neoplasm suspension), A-549 (human lung carcinoma monolayer culture); HT-29 human colon carcinoma monolayer culture) and MEL (human melanoma monolayer culture).
(§3) The A-549, HT-29 and MEL-28 cells were seeded in 16 mm cups at […] cells per cup in aliquots of […] of MEM 10FCS that contain the indicated drug concentration. Separately, a batch of cultures without any drug was seeded as a growth control to ensure that the cells were kept in a logarithmic phase of growth. All the determinations were carried out in duplicate. After three days of incubation at 37° C., 10% CO2 in an atmosphere with 98% humidity, the cups were stained with crystal violet 0.1%. The approximate IC50 was determined by comparing the growth in the cups with the drug and the growth in the control cups.

[2] = tested on: A-549; assay: IC50 growth inhibition, A-549 monolayer culture (crystal violet); format: cell-based; settings: Homo sapiens, A549, 72 h, three days, 37° C., 10% CO2, crystal violet 0.1%, approximate IC50, in duplicate
Method: as §1, §2, §3

[3] = tested on: HT-29; assay: IC50 growth inhibition, HT-29 monolayer culture (crystal violet); format: cell-based; settings: Homo sapiens, 72 h, three days, 37° C., 10% CO2, crystal violet 0.1%, approximate IC50, in duplicate
Method: as §1, §2, §3

[4] = tested on: P-388; assay: IC50 growth inhibition, P-388 suspension culture; format: cell-based, DBA/2 mouse; settings: Mus musculus, P388, 72 h, three days, 37° C., 10% CO2, approximate IC50, in duplicate
Method: as §1, §2
The P-388 cells were seeded in 16 mm cups at 1×10^4 cells per cup in aliquots at 1 ml. MEM 5FCS that contains the indicated drug concentration. Separately, a batch of cultures without any drug was seeded as a growth control to ensure that the cells were kept in a logarithmic phase of growth. All the determinations were carried out in duplicate. After three days of incubation at 37° C., 10% CO2 in an atmosphere with 98% humidity, the approximate IC50 was determined by comparing the growth in the cups with the drug and the control cups.

[5] = tested on: thymidilate synthetase; settings: cited from earlier work
[6] = tested on: Gram positive bacteria; settings: cited from earlier work

SMILES | IC50 [2] [µg/mL] | IC50 [3] [µg/mL] | IC50 [1] [µg/mL] | IC50 [4] [µg/mL] | capacity to inhibit thymidilate synthetase [5] | activity against Gram positive bacteria [6]
CCc1cc2c([nH]c1=O)C(=O)c1[nH]c(=O)cc(C)c1C2=O [(I-c)] | 0.025 (≈ 0.0879 µM) | 0.1 (≈ 0.352 µM) | 0.1 (≈ 0.352 µM) | 0.1 (≈ 0.352 µM) | – | –
O=C1c2cc(F)cnc2C(=O)c2ncc(F)cc21 [(I-i), 3,6-difluoro-1,8-diazaanthracen-9,10-dione] | 0.1 (≈ 0.406 µM) | 0.1 (≈ 0.406 µM) | 0.025 (≈ 0.102 µM) | 0.025 (≈ 0.102 µM) | – | –
CCOc1nc2c(cc1C)C(=O)c1ccccc1C2=O [(I-b), 2-ethoxy-3-methyl-1-azaanthracen-9,10-dione] | 0.25 (≈ 0.935 µM) | 10 (≈ 37.4 µM) | 5 (≈ 18.7 µM) | 5 (≈ 18.7 µM) | – | –
CC1=C(C)CC2C(=O)c3c(C)cc(=O)[nH]c3C(=O)C2C1 (stereo not shown) [(I-a), 4,6,7-trimethyl-5,8,8a,10a-tetrahydro-1H-1-azaathracen-2,9,10-trione] | 0.25 (≈ 0.921 µM) | 1 (≈ 3.69 µM) | – | 1 (≈ 3.69 µM) | – | –
CC(=O)c1cc2c([nH]c1=O)C(=O)c1ncc(C)cc1C2=O [(I-d)] | 0.25 (≈ 0.886 µM) | 1 (≈ 3.54 µM) | 0.25 (≈ 0.886 µM) | 1 (≈ 3.54 µM) | – | –
CCCc1c2c([nH]c(=O)c1C)C(=O)c1[nH]c(=O)c(C)c(CCC)c1C2=O [Diazaquinomycin A] | – | – | – | – | capacity to inhibit thymidilate synthetase | goods activity against Gram positive bacteria

Further lines, with some results ahead:

IC50 [2] [µg/mL] | IC50 [3] [µg/mL] | SMILES | IC50 [1] [µg/mL] | IC50 [4] [µg/mL] | capacity to inhibit thymidilate synthetase [5] | activity against Gram positive bacteria [6]
0.02 (≈ 0.0775 µM) | 0.05 (≈ 0.194 µM) | Cc1cc(=O)[nH]c2c1C(=O)c1cc(F)cnc1C2=O [(I-e), 6-fluoro-4-methyl-1H,1,8-diazaanthracen-2,9,10-trione] | 0.05 (≈ 0.194 µM) | 0.005 (≈ 0.0194 µM) | – | –
0.02 (≈ 0.0706 µM) | 0.02 (≈ 0.0706 µM) | Cc1cc(=O)[nH]c2c1C(=O)c1cc(N(C)C)cnc1C2=O [(I-f), 6-dimethylamino-4-methyl-1H-1,8-diazaanthracen-2,9,10-trione] | 0.02 (≈ 0.0706 µM) | 0.02 (≈ 0.0706 µM) | – | –
0.25 (≈ 1.03 µM) | 0.25 (≈ 1.03 µM) | CC1C(F)=CNC2=C1C(=O)c1ccccc1C2=O (stereo not shown) [(I-k), 3-fluoro-4-methyl-1,4-dihydro-1-azaanthracen-9,10-dione] | 0.12 (≈ 0.493 µM) | 0.25 (≈ 1.03 µM) | – | –
0.05 (≈ 0.185 µM) | 0.05 (≈ 0.185 µM) | Cc1cc(=O)[nH]c2c1C(=O)c1cc(C)c(=O)[nH]c1C2=O [(I-h), 3,5-dimethyl-1,8-dihydro-1,8-diazaanthracen-2,7,9,10-tetraone] | 0.025 (≈ 0.0925 µM) | 0.05 (≈ 0.185 µM) | – | –
0.05 (≈ 0.138 µM) | 0.05 (≈ 0.138 µM) | Cc1cc(=O)[nH]c2c1C(=O)C1=C(NC=CC1c1ccccc1[N+](=O)[O-])C2=O (stereo not shown) [(I-g), 4-methyl-5-(2-nitrophenyl)-5,8-dihydro-1H-1,8-diazaanthracen-2,9,10-trione] | 0.1 (≈ 0.275 µM) | 0.5 (≈ 1.38 µM) | – | –
5 (≈ 15.8 µM) | 10 (≈ 31.6 µM) | Cc1cnc2c(c1)C(=O)c1cc(-c3ccccc3)c(=O)[nH]c1C2=O [(I-j), 6-methyl-3-phenyl-1H-1,8-diazaanthracen-2,9,10-trione] | > 10 | 2.5 (≈ 7.9 µM) | – | –
0.05 (≈ 0.22 µM) | 0.25 (≈ 1.1 µM) | O=C1c2ccccc2C(=O)c2ncc(F)cc21 [(I-l), 3-fluoro-1-azaanthracen-9,10-dione] | 0.05 (≈ 0.22 µM) | 0.25 (≈ 1.1 µM) | – | –
